Each structure is given as a SMILES string.

Series [1] deals with pDC. Kind of series: Intracellular IFNα and TNFα production by CpG-A-stimulated isolated pDC (flow cytometry). It is filed as cell-based, human. The source says:
PBMC from buffy coats from healthy blood donors were isolated by density gradient centrifugation using SepMate tubes and Lymphoprep (both […] Technologies). pDC were negatively selected from PBMC using the plasmacytoid dendritic cell isolation kit II (Miltenyi Biotec). Buffy coats were kindly provided by the Institute for Transfusion Medicine and Gene Therapy, Medical Center - University of Freiburg (donor consent, anonymized). Skin samples of lupus patients were obtained through the biobank of the SFB829 (Z4 project) with informed consent from all the subjects and ethical approval obtained from the Ethics Committee at the University of Cologne (votes 12-163 and 19-1146). SLE PBMC were provided by ImmRheum biobank in Freiburg, a project that was approved by the local ethical committee (votes 507/16 and 624/14). All patients who provided blood to the biobank had provided written informed consent.
(§1) Cells were stimulated with 5 µM CpG-A ODN (ODN2216, InvivoGen) for times indicated.
The following fluorochrome-conjugated monoclonal antibodies were used for staining cell surface markers: IL-3Ra (CD123) (Miltenyi Biotec, clone AC145), HLA-DR (BD Bioscience, clone G46-6), CD116 (BD Bioscience, clone hGMCSFR-M1), CD4 (Biolegend, clone A161A1). […] Isolated pDC staining was performed in 0.5% BSA in PBS for 10 min at RT, dead cells were excluded with the LIVE/DEAD Fixable Near-IR or Aqua Dead Cell Stain Kits (Thermo scientific). Unspecific binding was blocked with FcR blocking reagent (Miltenyi). The following fluorochrome-conjugated Abs were used for intracellular staining: IFNα (Miltenyi, LT27:295), TNFα (BioLegend, clone Mab11), pS6(S235/236; CST, clone D57.2.2e), pSTAT5 (Y694; CST, clone C71E5). After surface staining, cells were fixed using Fixation/Permeabilization Kit (BD Bioscience) for 20 min at 4°C, and then additionally permeabilized in Perm/Wash solution for 30 min at 4°C, after which cells were incubated with antibodies against intracellular proteins, at previously determined antibody dilutions, for 30 min at RT. […] Cycloheximide (Sigma) at 100 µg/ml was used as a positive control for protein synthesis inhibition.
A general note: Flow cytometry measures light scatter and fluorescence of single cells or particles in a stream.

Series [2] deals with pDC. Kind of series: Live cells / cell death of isolated pDC (LIVE/DEAD stain). The series is classed as cell-based. How it is done: as §1
(§2) Isolated pDC staining was performed in 0.5% BSA in PBS for 10 min at RT, dead cells were excluded with the LIVE/DEAD Fixable Near-IR or Aqua Dead Cell Stain Kits (Thermo scientific). Unspecific binding was blocked with FcR blocking reagent (Miltenyi). The following fluorochrome-conjugated Abs were used for intracellular staining: IFNα (Miltenyi, LT27:295), TNFα (BioLegend, clone Mab11), pS6(S235/236; CST, clone D57.2.2e), pSTAT5 (Y694; CST, clone C71E5). After surface staining, cells were fixed using Fixation/Permeabilization Kit (BD Bioscience) for 20 min at 4°C, and then additionally permeabilized in Perm/Wash solution for 30 min at 4°C, after which cells were incubated with antibodies against intracellular proteins, at previously determined antibody dilutions, for 30 min at RT. […] Cycloheximide (Sigma) at 100 µg/ml was used as a positive control for protein synthesis inhibition.

The target of series [3] is T1, System LAA transporters SLC7A5 and SLC3A2 (Homo sapiens, UniProt Q01650).
T1 construct: freshly isolated pDC from PBMC of healthy donors and SLE patients also expressed System LAA transporters SLC7A5 and SLC3A2; endogenous in cells; host or cells: Primary plasmacytoid dendritic cells isolated from PBMC of human donors
The experiment in a line: Kynurenine uptake by pDC (flow cytometry), System LAA transporter activity. The series is classed as cell-based. The procedure: (§3) Briefly, stained cells were incubated in HBSS (Gibco) with 200 µM kynurenine (Sigma) for 4 min at 37°C.
To assess whether IL-3-induced expression of SLC7A5 and SLC3A2 allowed the assembly of a functional System LAA transporter, we used a flow cytometry-based assay that measures the ability of cells to take up kynurenine, a naturally fluorescing molecule that is transported into cells via SLC7A5; this can be used as a proxy measurement of large neutral amino acid (LNAA) uptake. […] Of interest, freshly isolated pDC from PBMC of healthy donors and SLE patients also expressed System LAA transporters SLC7A5 and SLC3A2 (Figure 5D) and furthermore pDC from healthy donors had the ability to take up kynurenine immediately ex vivo, a process that was blocked by BCH (Figure 5E).

The test system of series [4] is pDC. The experiment in a line: Combined kynurenine uptake and pS6 (S235/236) in pDC (double positive cells). The series is classed as cell-based, human.
From the text: To confirm that functional System LAA transport is a prerequisite for mTORC1 activation in response to CpG-A, the effects of IL-3 and CpG-A were examined on combined measurements of kynurenine uptake, S6 (S235/236) phosphorylation and cytokine production.
For series [5], the system named is pDC. The experiment in a line: Lactate levels in pDC culture medium (Cedex Bio Analyzer). It is filed as cell-based, human. Conditions: pDC in IL-3, CpG-A and inhibitor for 10 h. How it is done:
as §1
Glucose and lactate were measured in cell culture supernatants using the Cedex Bio Analyzer (Roche) and data presented as mmol/L.

In a further series the test system is SLC7A11. The experiment in a line: SLC7A11 mRNA expression in pDC (PrimeFlow RNA). It is filed as cell-based, human. Conditions: pDC in IL-3 and inhibitor o/n; for SLC7A11 and SLC7A5 mRNA expression (double positive cells): then CpG-A 5h (Figure 12B). How it is done: as §1, §3
The next series concerns mTORC1. The experiment in a line: S6 (S235/236) phosphorylation in pDC by flow cytometry, as measure of mTORC1 activity. The series is classed as cell-based, human. The settings on record: pDC in IL-3 with inhibitor, stimulated with CpG-A; 20 nM RAP, 1µM AZD, BAR. How it is done: as §1, §2
For another series, the system named is STAT5 (Y694). The experiment in a line: STAT5 (Y694) phosphorylation in pDC by flow cytometry. It is filed as cell-based, human. The settings on record: IL-3-induced; pDC with inhibitor o/n. The procedure:
as §1, §2

The subject of the next series is SLC7A5 and SLC3A2. The experiment in a line: SLC7A5 and SLC3A2 mRNA expression in pDC (PrimeFlow RNA). The settings on record: pDC in IL-3 and inhibitor o/n, then CpG-A 5h.
The test system of series [6] is pDC. The experiment in a line: De novo protein synthesis in pDC, incorporation of puromycin analogue (OPP). It is filed as cell-based, human. Conditions: pDC in IL-3, CpG-A for 10 h and inhibitor.
[7] abbreviates: pDC in IL-3, CpG-A and inhibitors for 5h after o/n rest (Figure 4E), 10µM HPA, 1 µM oligomycin.
Setting [8] is: cultured pDC +/- IL-3, +/- CpG-A, 200 µM kynurenine 4 min, 10 mM BCH at time of uptake.
The mark [9] stands for this setting: pDC in IL-3 and inhibitor o/n, then CpG-A 5h, 20 nM RAP, 250 nM TOR, 10µM HPA, 1µM AZD, BAR, 5 µM ERA, 100 or 200 µM SAZ.
The mark [10] stands for this setting: pDC in IL-3 and inhibitor o/n, then CpG-A 5h, 20 nM RAP, 10µM HPA, 1µM AZD, BAR, 5 µM ERA, 100 or 200 µM SAZ.

T1 sequence (Q01650 whole entry): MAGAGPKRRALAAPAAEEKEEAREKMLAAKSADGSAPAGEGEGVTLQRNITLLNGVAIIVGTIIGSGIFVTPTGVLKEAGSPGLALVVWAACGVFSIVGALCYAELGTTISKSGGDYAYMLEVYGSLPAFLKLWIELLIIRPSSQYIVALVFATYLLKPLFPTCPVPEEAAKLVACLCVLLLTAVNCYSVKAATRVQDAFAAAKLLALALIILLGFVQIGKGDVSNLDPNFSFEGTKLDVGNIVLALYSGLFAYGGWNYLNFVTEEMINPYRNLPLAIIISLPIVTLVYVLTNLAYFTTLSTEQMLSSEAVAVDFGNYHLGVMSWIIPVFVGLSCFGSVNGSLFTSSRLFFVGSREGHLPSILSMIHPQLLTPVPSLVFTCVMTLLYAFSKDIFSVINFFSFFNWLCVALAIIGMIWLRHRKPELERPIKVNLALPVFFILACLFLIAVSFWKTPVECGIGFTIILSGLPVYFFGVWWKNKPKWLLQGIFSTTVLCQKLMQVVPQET
T1 sequence (P08195 103-630 partner limits assumed): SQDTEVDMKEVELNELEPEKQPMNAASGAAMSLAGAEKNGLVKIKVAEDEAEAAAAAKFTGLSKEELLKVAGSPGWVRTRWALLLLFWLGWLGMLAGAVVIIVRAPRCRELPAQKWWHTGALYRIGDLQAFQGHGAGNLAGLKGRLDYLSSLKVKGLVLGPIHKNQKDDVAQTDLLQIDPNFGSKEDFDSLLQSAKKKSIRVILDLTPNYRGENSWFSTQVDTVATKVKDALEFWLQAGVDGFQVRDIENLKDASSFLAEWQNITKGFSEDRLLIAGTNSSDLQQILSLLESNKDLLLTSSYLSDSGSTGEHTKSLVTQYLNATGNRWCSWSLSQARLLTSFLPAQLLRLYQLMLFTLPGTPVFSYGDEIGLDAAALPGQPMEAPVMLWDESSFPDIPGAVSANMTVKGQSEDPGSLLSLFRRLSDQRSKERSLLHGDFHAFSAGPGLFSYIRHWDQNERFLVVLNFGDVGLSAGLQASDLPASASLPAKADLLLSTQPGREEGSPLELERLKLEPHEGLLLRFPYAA

Turning to `CC[C@H]1/C=C/C=C/C[C@@H](C)[C@H](O)[C@@](C)(O)C(=O)[C@@H](C)[C@H](O)[C@@H](C)C(=O)[C@@H](C)[C@H](O)[C@@H](C)/C=C/C(=O)O[C@@H]2[C@H](C)[C@H](CC1)O[C@]1(CC[C@H](C)[C@H](C[C@@H](C)O)O1)[C@H]2C` [OLI, oligomycin], in the series with pDC [1] (setting [7]), the IFNα production result was “inhibited IFNα production to approximately the same extent as HPA” and the TNFα production result is listed as “no effect”.
Regarding `CCOc1ccccc1-n1c(C(C)N2CCN(C(=O)COc3ccc(Cl)cc3)CC2)nc2ccccc2c1=O` (centres unmarked) [ERA, erastin], the “live cells (cell death)” value in the series on pDC [2] is “absence of appreciable cell death”.
For the compound `NC1(C(=O)O)CC2CCC1C2` (centres unmarked) [BCH, 2-Aminobicyclo[2.2.1]heptane-2-carboxylic acid], the kynurenine uptake result is listed as “abrogated transport of kynurenine in all of the conditions” in [3] (setting [8]) and “blocked” in series [3] (pDC from healthy donors immediately ex vivo, 10 mM BCH).
With `CCS(=O)(=O)N1CC(CC#N)(n2cc(-c3ncnc4[nH]ccc34)cn2)C1` [BAR, baricitinib], the “live cells (cell death / cell survival)” value in the series on pDC [2] (BAR 25 to 100 nM, alone or with SAZ, IL-3 o/n, then CpG-A 5h (Figure 14C)) was “increased cell death”.
Take `O=C(O)c1cc(/N=N/c2ccc(S(=O)(=O)Nc3ccccn3)cc2)ccc1O` [Sulfasalazine, sulfasalazine]: in the series with pDC [1] (setting [9]), the IFNα production entry is “inhibited”. Moreover, the TNFα production result in the series on pDC [1] (setting [10]) was “inhibited”. In addition, the “kynurenine uptake and pS6 (S235/236) expression (cells positive for both)” value in the series on pDC [4] (pDC in IL-3 and inhibitor o/n, then CpG-A 5h) is “reductions”.
For `CCC(=O)N1CCN(c2ccc(-n3c(=O)ccc4cnc5ccc(-c6cnc7ccccc7c6)cc5c43)cc2C(F)(F)F)CC1` [TOR, torin1], in the series with pDC [1] (setting [9]), the IFNα production result is “similar, although less pronounced effect”. For the same compound, the “lactate levels in medium” value in the series on pDC [5] was “decline in CpG-A-induced lactate release”. The “SLC7A11 mRNA expression” value in the series with SLC7A11 (then CpG-A 5h) is given as “inhibited”. Besides, the “SLC7A11 and SLC7A5 mRNA expression (double positive cells)” value with SLC7A11 was “similar, although less pronounced effect”.
For the compound `Cc1cc(Nc2nc(N[C@@H](C)c3ncc(F)cn3)ncc2Cl)n[nH]1` [AZD, AZD1480], in the series with mTORC1, the “pS6 (S235/236) expression” value is “reductions”. The IFNα production entry with pDC [1] (setting [9]) is “lost and decrease”; in the series on pDC [1] (pDC maintained in GM-CSF and inhibitor o/n, then CpG-A 5h (Figure 8)) it was “inhibited”. In addition, the TNFα production entry in the series with pDC [1] (setting [10]) is recorded as “decrease”. For the same compound, in series [3] (setting [8]), the kynurenine uptake entry is reported as “reductions”. For the same compound, the “kynurenine uptake and pS6 (S235/236) expression (cells with high rates of kynurenine uptake and mTORC1 activity)” value in the series on pDC [4] (pDC in GM-CSF and inhibitor o/n, then CpG-A 5h (Figure 8)) was “inhibited”. Besides, the “pSTAT5 (Y694) expression” value in the series with STAT5 (Y694) is on record as “inhibited”. Besides, in the series with SLC7A11, the “SLC7A11 and SLC7A5 mRNA expression (double positive cells)” value is given as “lost expression of both transporters”. Besides, the “SLC7A5 and SLC3A2 mRNA expression” value in the series on SLC7A5 and SLC3A2 is given as “significantly inhibited”.
As to `CC(C)[C@H]1CC[C@@]2(CO2)[C@H]2C(=O)OCC(C(=O)O)=C[C@H]12` [HPA, heptelidic (koningic) acid], the IFNα production result in the series on pDC [1] (setting [9]) was “reductions”. For the same compound, in the series on pDC [1] (setting [10]), the TNFα production entry is on record as “reductions”. Further, the “protein synthesis measured by incorporation of puromycin analogue (OPP)” value in the series on pDC [6] was “caused reductions in overall protein synthesis”. Moreover, in the series with pDC [5], the “lactate levels in medium” value is given as “reduced secreted lactate levels to below those in cultures of unstimulated pDC”.

The record behind these values is patent publication EP4008330A1, “COMBINED INHIBITION OF AMINO ACID TRANSPORTERS FOR INHIBITING HUMAN PLASMACYTOID DENDRITIC CELL ACTIVITY DURING AUTOIMMUNITY” (Max-Planck-Gesellschaft zur Förderung der Wissenschaften …, priority 2020, dated 2022).
